# Measured values taken from ChEMBL document CHEMBL3868631, “Discovery of SOAT2 inhibitors from synthetic small molecules” (Bioorg Med Chem Lett, 2016).
# Test system: not listed separately
# Test: Cytotoxicity against CHO cells expressing African green monkey SOAT1 assessed as change in cell shape at 10 ug/ml
# Type: toxicity, cell-based, Cricetulus griseus
# Conditions: chinese hamster
row,SMILES,Activity
1,CCC[C@@H]1C[C@@H](O)C[C@@]2(O1)C(=O)Nc1ccccc12,Non-Toxic
2,O=C1C[C@@H](CCCCl)O[C@]2(C1)C(=O)Nc1cccc(Br)c12,Non-Toxic
3,CCC[C@@H]1CC(=O)C[C@@]2(O1)C(=O)Nc1cccc(Cl)c12,Non-Toxic
4,CCC[C@@H]1CC(=O)C[C@@]2(O1)C(=O)Nc1ccc(C)cc12,Non-Toxic
5,O=C1CC(c2ccccc2)O[C@]2(C1)C(=O)Nc1cccc(Br)c12 (mixture of isomers),Non-Toxic
6,CCC[C@@H]1C/C(=N/O)C[C@@]2(O1)C(=O)Nc1ccccc12 (racemic),Non-Toxic
7,CCC[C@@H]1CC(=O)C[C@@]2(O1)C(=O)Nc1ccc(Br)cc12 (racemic),Non-Toxic
8,CCC[C@@H]1CC(=O)C[C@@]2(O1)C(=O)Nc1ccccc12 (racemic),Non-Toxic
9,CCC[C@@H]1CC(=O)C[C@@]2(O1)C(=O)Nc1cc(Cl)ccc12 (racemic),Non-Toxic
10,CCC/C=C/C(=O)CC1(O)C(=O)Nc2ccccc21 (racemic),Toxic
11,CCC/C=C/C(=O)CC1(O)C(=O)Nc2cccc(Br)c21 (racemic),Toxic

# Test system: not listed separately
# Test: Cytotoxicity against CHO cells expressing African green monkey SOAT2 assessed as change in cell shape at 10 ug/ml
# Type: toxicity, cell-based, Cricetulus griseus
# Conditions: chinese hamster
row,SMILES,Activity
1,CCC[C@@H]1C[C@@H](O)C[C@@]2(O1)C(=O)Nc1ccccc12,Non-Toxic
2,O=C1C[C@@H](CCCCl)O[C@]2(C1)C(=O)Nc1cccc(Br)c12,Non-Toxic
3,CCC[C@@H]1CC(=O)C[C@@]2(O1)C(=O)Nc1ccccc12,Non-Toxic
4,CCC[C@@H]1CC(=O)C[C@@]2(O1)C(=O)Nc1cccc(Cl)c12,Non-Toxic
5,CCC[C@@H]1CC(=O)C[C@@]2(O1)C(=O)Nc1ccc(C)cc12,Non-Toxic
6,O=C1CC(c2ccccc2)O[C@]2(C1)C(=O)Nc1cccc(Br)c12 (mixture of isomers),Non-Toxic
7,CCC[C@@H]1C/C(=N/O)C[C@@]2(O1)C(=O)Nc1ccccc12 (racemic),Non-Toxic
8,CCC[C@@H]1CC(=O)C[C@@]2(O1)C(=O)Nc1ccc(Br)cc12 (racemic),Non-Toxic
9,CCC[C@@H]1CC(=O)C[C@@]2(O1)C(=O)Nc1cc(Cl)ccc12 (racemic),Non-Toxic
10,CCC/C=C/C(=O)CC1(O)C(=O)Nc2ccccc21 (racemic),Toxic
11,CCC/C=C/C(=O)CC1(O)C(=O)Nc2cccc(Br)c21 (racemic),Toxic

# Target: T1, SOAT1 (sterol O-acyltransferase 1) (Chlorocebus aethiops, UniProt O77760)
# T1 sequence (O77760 whole entry): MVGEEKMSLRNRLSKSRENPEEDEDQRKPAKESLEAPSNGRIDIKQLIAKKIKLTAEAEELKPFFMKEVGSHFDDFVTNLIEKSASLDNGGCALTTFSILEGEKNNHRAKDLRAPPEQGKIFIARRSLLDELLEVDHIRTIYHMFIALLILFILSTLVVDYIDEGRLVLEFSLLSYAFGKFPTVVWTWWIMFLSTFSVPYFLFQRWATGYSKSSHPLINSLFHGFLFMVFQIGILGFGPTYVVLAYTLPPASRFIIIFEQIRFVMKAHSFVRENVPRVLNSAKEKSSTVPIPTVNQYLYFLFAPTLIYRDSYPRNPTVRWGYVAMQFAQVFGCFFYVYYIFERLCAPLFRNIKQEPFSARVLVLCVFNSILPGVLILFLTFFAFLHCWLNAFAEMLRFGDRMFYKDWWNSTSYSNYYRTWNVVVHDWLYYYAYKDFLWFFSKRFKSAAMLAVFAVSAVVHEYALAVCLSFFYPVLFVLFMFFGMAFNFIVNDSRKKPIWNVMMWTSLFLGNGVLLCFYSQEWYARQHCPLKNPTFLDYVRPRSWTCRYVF
# Test: Inhibition of African green monkey SOAT1 expressed in CHO cells assessed as reduction in [14C]cholesteryl ester formation from [1-14C]oleic acid at 10 ug/ml measured after 6 hrs relative to control
# Type: ADME, cell-based
# Conditions: CHO cells expressing African green monkey SOAT1, probe [1-14C]oleic acid
row,"inhibition at 6 h, 10 ug/ml [%]",SMILES
1,> 50,O=C1CC(c2ccccc2)O[C@]2(C1)C(=O)Nc1cccc(Br)c12 (mixture of isomers)
2,> 50,CCC[C@@H]1C/C(=N/O)C[C@@]2(O1)C(=O)Nc1ccccc12 (racemic)
3,> 50,CCC/C=C/C(=O)CC1(O)C(=O)Nc2cccc(Br)c21 (racemic)

# Target: T2, Sterol O-acyltransferase 2 (Chlorocebus aethiops) (UniProt O77759)
# T2 sequence (whole entry): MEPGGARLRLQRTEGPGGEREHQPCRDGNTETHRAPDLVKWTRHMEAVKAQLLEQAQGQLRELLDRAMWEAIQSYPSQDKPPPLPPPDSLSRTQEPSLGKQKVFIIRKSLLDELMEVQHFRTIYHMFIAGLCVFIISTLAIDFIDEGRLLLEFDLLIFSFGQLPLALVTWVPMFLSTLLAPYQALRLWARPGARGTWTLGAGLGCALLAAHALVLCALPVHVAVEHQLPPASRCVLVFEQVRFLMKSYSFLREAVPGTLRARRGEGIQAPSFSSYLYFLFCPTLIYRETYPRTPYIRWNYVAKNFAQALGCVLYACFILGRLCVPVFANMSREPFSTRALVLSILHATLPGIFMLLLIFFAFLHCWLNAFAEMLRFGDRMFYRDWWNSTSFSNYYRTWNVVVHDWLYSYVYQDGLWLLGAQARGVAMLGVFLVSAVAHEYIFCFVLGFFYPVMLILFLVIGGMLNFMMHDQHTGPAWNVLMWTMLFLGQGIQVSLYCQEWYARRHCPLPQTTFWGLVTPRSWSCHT
# Test: Inhibition of African green monkey SOAT2 expressed in CHO cells assessed as reduction in [14C]cholesteryl ester formation from [1-14C]oleic acid at 10 ug/ml measured after 6 hrs relative to control
# Type: cell-based
# Conditions: not given
row,inhibition [%],SMILES
1,> 50,O=C1CC(c2ccccc2)O[C@]2(C1)C(=O)Nc1cccc(Br)c12 (mixture of isomers)
2,> 50,CCC[C@@H]1C/C(=N/O)C[C@@]2(O1)C(=O)Nc1ccccc12 (racemic)
3,> 50,CCC/C=C/C(=O)CC1(O)C(=O)Nc2cccc(Br)c21 (racemic)
